# Test system: HT-29 cells
# Experiment: HT29 cells 0FBS assay in vitro: TNF-α/SMAC mimetic/zVAD-FMK induced necroptosis, CellTiter-Glo cell viability (RIP1 inhibitory activity)
# Format: cell-based
# Settings: Homo sapiens, FBS free medium, TNF-α (10 ng/ml) + SMAC mimetic (6 uM) + zVAD-FMK (10 μM), 20 hours, geometric mean EC50
# How it was run: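 Luminescent ATP read-out (CellTiter-Glo) gave viability of HT-29 cells after 20 h at 37° C in serum-free medium containing compound and a necroptosis cocktail of 10 ng/ml TNF-α, 6 uM SMAC mimetic and 10 μM zVAD-FMK. EC50s are geometric means of 10-point curves run in duplicate.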
row,Compound,EC50
1,"COc1nccc(C)c1-c1cc(OC2CN(C(=O)N3N=CC[C@H]3c3cc(F)cc(F)c3)C2)c(F)cn1 [Compound 165, (S)-(5-(3,5-difluorophenyl)-4,5-dihydro-1H-pyrazol-1-yl)(3-((5-fluoro-2′-methoxy-4′-methyl-[2,3′-bipyridin]-4-yl)oxy)azetidin-1-yl)methanone]",100 to 1000 nM
2,"Cc1cc[nH]c(=O)c1-c1cc(OC2CN(C(=O)N3N=CC[C@H]3c3cc(F)cc(F)c3)C2)c(F)cn1 [Compound 166, (S)-4-((1-(5-(3,5-difluorophenyl)-4,5-dihydro-11H-pyrazole-1-carbonyl)azetidin-3-yl)oxy)-5-fluoro-4′-methyl-[2,3′-bipyridin]-2′(1′H)-one]",100 to 1000 nM
3,"O=C(N1CC(Oc2cc(-c3ccc[nH]c3=O)ncc2F)C1)N1N=CC[C@H]1c1cc(F)cc(F)c1 [Compound 167, (S)-4-((1-(5-(3,5-difluorophenyl)-4,5-dihydro-1H-pyrazole-1-carbonyl)azetidin-3-yl)oxy)-5-fluoro-[2,3′-bipyridin]-2′(1′H)-one]",0.1 to 100 nM
4,"Cc1ccn(C)c(=O)c1-c1cc(OC2CN(C(=O)N3N=CC[C@H]3c3cc(F)cc(F)c3)C2)c(F)cn1 [Compound 168, (S)-4-((1-(5-(3,5-difluorophenyl)-4,5-dihydro-1H-pyrazole-1-carbonyl)azetidin-3-yl)oxy)-5-fluoro-1′,4′-dimethyl-[2,3′-bipyridin]-2′(1′H)-one]",1000 to 10000 nM

# Reference: patent US20240294508A1, “RIP1 MODULATORS INCLUDING AZETIDINE CYCLIC UREAS, PREPARATIONS, AND USES THEREOF” (SIRONAX LTD., priority 2021, published 2024)
